In this assay the target is T1, human cardiac ion channel proteins hKir3.1/Kir3.4 (Homo sapiens, UniProt P48544+P48549).
T1 construct: expressed in transfected cells
T1 sequence (P48549 1-501): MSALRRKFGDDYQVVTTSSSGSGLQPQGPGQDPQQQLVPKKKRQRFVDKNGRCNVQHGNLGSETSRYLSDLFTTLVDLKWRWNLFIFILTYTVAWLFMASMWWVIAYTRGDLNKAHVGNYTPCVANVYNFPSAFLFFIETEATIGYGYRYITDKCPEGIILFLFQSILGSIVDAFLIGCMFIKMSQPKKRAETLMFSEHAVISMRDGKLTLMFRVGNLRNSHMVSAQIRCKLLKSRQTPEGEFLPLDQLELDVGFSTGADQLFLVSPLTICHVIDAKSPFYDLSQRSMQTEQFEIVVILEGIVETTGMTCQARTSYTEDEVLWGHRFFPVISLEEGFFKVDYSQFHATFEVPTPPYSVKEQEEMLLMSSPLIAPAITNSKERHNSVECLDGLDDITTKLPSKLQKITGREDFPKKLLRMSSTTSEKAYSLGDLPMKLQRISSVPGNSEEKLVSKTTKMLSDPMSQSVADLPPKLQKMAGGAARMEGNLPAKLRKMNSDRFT
T1 sequence (P48544 1-419): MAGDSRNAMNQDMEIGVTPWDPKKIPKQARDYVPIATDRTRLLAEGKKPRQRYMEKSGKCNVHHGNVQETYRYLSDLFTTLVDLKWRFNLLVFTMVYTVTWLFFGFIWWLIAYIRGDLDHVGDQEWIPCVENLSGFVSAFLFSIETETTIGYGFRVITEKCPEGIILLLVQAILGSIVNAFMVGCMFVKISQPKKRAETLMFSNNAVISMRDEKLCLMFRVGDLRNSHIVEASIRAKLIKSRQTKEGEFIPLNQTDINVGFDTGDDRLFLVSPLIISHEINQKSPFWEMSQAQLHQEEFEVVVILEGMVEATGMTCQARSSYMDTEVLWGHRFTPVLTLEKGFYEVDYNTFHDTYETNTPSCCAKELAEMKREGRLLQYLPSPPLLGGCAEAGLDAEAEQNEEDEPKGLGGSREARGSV
Briefly: Atomic Absorption Screening (AAS) Rb efflux assay of hKir3.1/Kir3.4 block, carbachol/high K+ stimulated, 10-pt or 7-pt CR. The settings on record: 10-pt CR (0.003 to 67 μmol/L), AAS Rb efflux, CHO-K1 cells expressing hKir3.1/Kir3.4; mean of >4 replicates; read-out: IKACh IC50 10-pt CR, AAS. It counts as cell-based. In a few lines:
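Mean IC50s derive from >4 replicates over 0.003–67 μmol/L (10-point) or >3 replicates over 0.037–27 μmol/L (7-point), both threefold steps. Rb-loaded (3 h, 37° C) CHO-K1 cells stably expressing hKir3.1/Kir3.4 saw compound for 5 min at RT before 10-min channel opening by carbachol 10 μM/KCl 20 mM final. Released Rb was quantified by atomic absorption.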

pIC50: −log10 of the molar value.

The term pIC50 denotes −log10 of the IC50, conventionally taken in molar units.

With `CCCC[C@@H](CN1CC(O)C1)N(C)C(=O)c1cc(F)ccc1F` [Example 33.9, 2,5-Difluoro-N-[(2S)-1-(3-hydroxyazetidin-1-yl)hexan-2-yl]-N-methylbenzamide], the pIC50 is 5.37.
Take `CCCC[C@@H](CN1CC(O)C1)N(C)C(=O)c1cccc(C(F)F)c1` [Example 33.10, 3-(Difluoromethyl)-N-[(2S)-1-(3-hydroxyazetidin-1-yl)hexan-2-yl]-N-methylbenzamide]: the negative logarithm of the IC50 (pIC50) is 5.96.
The same measure for `CCC[C@@H](CN1CC(O)C1)N(C(=O)c1ccc(Cl)cc1)C(C)C` [Example 34.1, 4-Chloro-N-[(2S)-1-(3-hydroxyazetidin-1-yl)pentan-2-yl]-N-(propan-2-yl)benzamide]: 5.48; for `CCC[C@@H](CN1CC(O)C1)N(C(=O)c1ccc(F)c(F)c1)C(C)C` [Example 34.2, 3,4-Difluoro-N-[(2S)-1-(3-hydroxyazetidin-1-yl)pentan-2-yl]-N-(propan-2-yl)benzamide]: 4.96; for `CN(C(=O)c1ccc(Cl)cc1)[C@@H](CN1CC(O)C1)C1CCC1` [Example 35.1, 4-Chloro-N-[(1R)-1-cyclobutyl-2-(3-hydroxyazetidin-1-yl)ethyl]-N-methylbenzamide]: 5.47.
Next, `CN(C(=O)c1ccc(C#N)cc1)[C@@H](CN1CC(O)C1)C1CCC1` [Example 35.2, 4-Cyano-N-[(1R)-1-cyclobutyl-2-(3-hydroxyazetidin-1-yl)ethyl]-N-methylbenzamide]: 4.85; `CN(C(=O)c1ccc(OC(F)F)cc1)[C@@H](CN1CC(O)C1)C1CCC1` [Example 35.3, N-[(1R)-1-Cyclobutyl-2-(3-hydroxyazetidin-1-yl)ethyl]-4-(difluoromethoxy)-N-methylbenzamide]: 5.06; `Cc1cc(C(=O)N(C)[C@@H](CN2CC(O)C2)C2CCC2)ccc1F` [Example 35.4, N-[(1R)-1-Cyclobutyl-2-(3-hydroxyazetidin-1-yl)ethyl]-4-fluoro-N,3-dimethylbenzamide]: 6.18.
Regarding `CN(C(=O)c1ccc(F)cc1)[C@@H](CN1CC(O)C1)C1CCC1` [Example 35.5, N-[(1R)-1-Cyclobutyl-2-(3-hydroxyazetidin-1-yl)ethyl]-4-fluoro-N-methylbenzamide], the pIC50 is 4.96.
`CN(C(=O)c1ccc(F)cc1Cl)[C@@H](CN1CC(O)C1)C1CCC1` [Example 35.6, 2-Chloro-N-[(1R)-1-cyclobutyl-2-(3-hydroxyazetidin-1-yl)ethyl]-4-fluoro-N-methylbenzamide]: the negative-log IC50 (pIC50) is 5.34.
On to `CN(C(=O)c1ccc(F)c(F)c1)[C@@H](CN1CC(O)C1)C1CCC1` [Example 35.7, N-[(1R)-1-Cyclobutyl-2-(3-hydroxyazetidin-1-yl)ethyl]-3,4-difluoro-N-methylbenzamide], for which the negative-log IC50 (pIC50) is 5.41.
The same measure for `CN(C(=O)c1cccc(C(F)F)c1)[C@@H](CN1CC(O)C1)C1CCC1` [Example 35.8, N-[(1R)-1-Cyclobutyl-2-(3-hydroxyazetidin-1-yl)ethyl]-3-(difluoromethyl)-N-methylbenzamide]: 5.10; for `CN(C(=O)c1ccc(F)c(C#N)c1)[C@@H](CN1CC(O)C1)C1CCC1` [Example 35.9, 3-Cyano-N-[(1R)-1-cyclobutyl-2-(3-hydroxyazetidin-1-yl)ethyl]-4-fluoro-N-methylbenzamide]: 5.34.
For the molecule `CN(C(=O)c1ccc(F)cc1F)[C@@H](CN1CC(O)C1)C1CCC1` [Example 35.10, N-[(1R)-1-Cyclobutyl-2-(3-hydroxyazetidin-1-yl)ethyl]-2,4-difluoro-N-methylbenzamide], the negative logarithm of the IC50 (pIC50) is 4.82.
In the case of `CN(C(=O)c1cccc(Cl)c1F)[C@@H](CN1CC(O)C1)C1CCC1` [Example 35.11, 3-Chloro-N-[(1R)-1-cyclobutyl-2-(3-hydroxyazetidin-1-yl)ethyl]-2-fluoro-N-methylbenzamide], the negative logarithm of the IC50 (pIC50) is 5.32.
Take `COc1ccc(C(=O)N(C)[C@@H](CN2CC(O)C2)C2CCC2)c(F)c1` [Example 35.12, N-[(1R)-1-Cyclobutyl-2-(3-hydroxyazetidin-1-yl)ethyl]-2-fluoro-4-methoxy-N-methylbenzamide]: the pIC50 was 4.80.
For the molecule `COc1ccc(C(=O)N(C)[C@@H](CN2CC(O)C2)C2CCC2)cc1F` [Example 35.13, N-[(1R)-1-Cyclobutyl-2-(3-hydroxyazetidin-1-yl)ethyl]-3-fluoro-4-methoxy-N-methylbenzamide], the pIC50 was 4.96.
The same measure for `CN(C(=O)c1ccccc1)[C@@H](CN1CC(O)C1)C1CCC1` [Example 35.14, N-[(1R)-1-Cyclobutyl-2-(3-hydroxyazetidin-1-yl)ethyl]-N-methylbenzamide]: 4.89; for `CN(C(=O)c1ccc(C#N)cc1)[C@H](CN1CC(O)C1)C1CCCCC1` [Example 36.1, 4-cyano-N-[(1S)-1-cyclohexyl-2-(3-hydroxyazetidin-1-yl)ethyl]-N-methylbenzamide]: 6.39; for `CN(C(=O)c1ccc(Cl)cc1)[C@H](CN1CC(O)C1)C1CCCCC1` [Example 36.2, 4-Chloro-N-[(1S)-1-cyclohexyl-2-(3-hydroxyazetidin-1-yl)ethyl]-N-methylbenzamide]: 7.31.
`CN(C(=O)c1cccc(C#N)c1)[C@H](CN1CC(O)C1)C1CCCCC1` [Example 36.3, 3-Cyano-N-[(1S)-1-cyclohexyl-2-(3-hydroxyazetidin-1-yl)ethyl]-N-methylbenzamide]: the pIC50 was 6.04.
Take `CN(C(=O)c1ccc(C#N)cc1F)[C@H](CN1CC(O)C1)C1CCCCC1` [Example 36.4, 4-Cyano-N-[(1S)-1-cyclohexyl-2-(3-hydroxyazetidin-1-yl)ethyl]-2-fluoro-N-methylbenzamide]: the negative logarithm of the IC50 (pIC50) is 6.48.
Next, `CN(C(=O)c1ccc(C(C)(C)C#N)cc1)[C@H](CN1CC(O)C1)C1CCCCC1` [Example 36.5, 4-(2-Cyanopropan-2-yl)-N-[(1S)-1-cyclohexyl-2-(3-hydroxyazetidin-1-yl)ethyl]-N-methylbenzamide]: 5.72; `CN(C(=O)c1cc(F)cc(C#N)c1)[C@H](CN1CC(O)C1)C1CCCCC1` [Example 36.6, 3-Cyano-N-[(1S)-1-cyclohexyl-2-(3-hydroxyazetidin-1-yl)ethyl]-5-fluoro-N-methylbenzamide]: 5.72.
As to `CN(C(=O)c1ccc(F)cc1)[C@H](CN1CC(O)C1)C1CCCCC1` [Example 36.7, N-[(1S)-1-Cyclohexyl-2-(3-hydroxyazetidin-1-yl)ethyl]-4-fluoro-N-methylbenzamide], the negative-log IC50 (pIC50) is 5.85.
For `CN(C(=O)c1ccccc1)[C@H](CN1CC(O)C1)C1CCCCC1` [Example 36.8, N-[(1S)-1-Cyclohexyl-2-(3-hydroxyazetidin-1-yl)ethyl]-N-methylbenzamide], the pIC50 is 5.96.
Regarding `CCC[C@H](CN1CC(O)C1)N(C)C(=O)c1ccc(Cl)cc1` [Example 37, 4-Chloro-N-[(2R)-1-(3-hydroxyazetidin-1-yl)pentan-2-yl]-N-methylbenzamide], the pIC50 was 5.01.
Next, `CCc1ccc(C(=O)N(C)[C@@H](CC(C)C)CN2CC(O)C2)cc1` [Example 38.3, 4-Ethyl-N-[(2S)-1-(3-hydroxyazetidin-1-yl)-4-methylpentan-2-yl]-N-methylbenzamide]: 5.68; `CC(C)C[C@@H](CN1CC(O)C1)N(C)C(=O)c1cccc(C(F)F)c1` [Example 38.4, 3-(Difluoromethyl)-N-[(2S)-1-(3-hydroxyazetidin-1-yl)-4-methylpentan-2-yl]-N-methylbenzamide]: 6.11.
Turning to `COc1cc(C(=O)N(C)[C@@H](CC(C)C)CN2CC(O)C2)ccc1F` [Example 38.5, 4-Fluoro-N-[(2S)-1-(3-hydroxyazetidin-1-yl)-4-methylpentan-2-yl]-3-methoxy-N-methylbenzamide], the pIC50 was 5.38.
Regarding `COc1cc(Cl)ccc1C(=O)N(C)[C@@H](CC(C)C)CN1CC(O)C1` [Example 38.7, 4-Chloro-N-[(2S)-1-(3-hydroxyazetidin-1-yl)-4-methylpentan-2-yl]-2-methoxy-N-methylbenzamide], the negative-log IC50 (pIC50) was 6.33.
Consider `CSc1ccc(C(=O)N(C)[C@@H](CC(C)C)CN2CC(O)C2)cc1` [Example 38.8, N-[(2S)-1-(3-Hydroxyazetidin-1-yl)-4-methylpentan-2-yl]-N-methyl-4-(methylsulfanyl)benzamide], for which the pIC50 was 6.08.

The values are drawn from US8361998B2, “Compounds and their use as IKACh blockers” (AstraZeneca AB, priority 2010, dated 2013).
